≈ marks a conversion by molar mass, not a printed value. Read-outs that look alike come from different tables or passages of the source.
Key:
[1] = Saturation solubility in water; settings: water, thermodynamic from solid
Protocol: The saturation solubility in water is determined as described below. For incipient dissolution of the substances and to improve wetting of the samples, at most 1% of DMSO is added. To check the content, an HPLC-UV method was used.

[2] = system: human cervical carcinoma cell line KB/HeLa; experiment: XTT proliferation assay, KB/HeLa; type: cell-based; settings: for EC50: Homo sapiens, read-out: XTT proliferation assay, EC50, KB/Hela
Excerpt: (§1) The substances according to the invention were investigated for their antiproliferative activity in a proliferation test on established tumor cell lines. The test used determines the cellular dehydrogenase activity and makes possible a determination of the cell vitality and indirectly the cell count. The cell lines used are the human cervical carcinoma cell line KB/HeLa (ATCC CCL17), the ovarian adenocarcinoma cell line SKOV-3 (ATCC HTB77), the human glioblastoma cell line […] (NCI 503138) and the lung carcinoma cell line NCI-H460 (NCI 503473).
(§2) The adherently growing tumor cell lines KB/HeLa, SKOV-3, SF-268 and NCI-H460 were cultured under standard conditions in a fumigation incubator at 37° C., 5% CO2 and 95% atmospheric humidity. On experimental day 1, the cells are detached using trypsin/EDTA and pelleted by centrifugation. Subsequently, the cell pellet is resuspended in the respective culture medium at the corresponding cell count and reacted in a 96-well microtiter plate. The plates are then cultured overnight in the fumigation incubator. The test substances are prepared as 1 mg/ml stock solutions in DMSO and diluted to the appropriate concentrations on experimental day 2 using culture medium. The substances in culture medium are then added to the cells and incubated in the fumigation incubator for 45 h. As a control, cells which are not treated with test substance are used. For the XTT assay, 1 mg/ml of XTT (sodium 3′-[1-(phenylaminocarbonyl)-3,4-tetrazolium]-bis(4-methoxy-6-nitro)benzenesulfonic acid) is dissolved in RPMI-1640 medium without Phenol Red. Additionally, a 0.383 mg/ml PMS (N-methyldibenzopyrazine methylsulfate) solution in phosphate-buffered saline solution (PBS) is prepared. On experimental day 4, 75 μl/well of XTT-PMS mixture is pipetted onto the cell plates which in the meantime have been incubated with the test substances for 45 h. For this, shortly before use, the XTT solution is mixed with the PMS solution in the ratio 50:1 (vol:vol). The cell plates are then incubated in the fumigation incubator for a further 3 h and the optical density (OD490 nm) is determined in a photometer. By means of the OD490 nm determined, the percentage inhibition is calculated relative to the control and plotted semilogarithmically in the form of a concentration-action curve. The EC50 is calculated by means of a regression analysis from the concentration-action curve using the program Graphpad Prism.

[3] = system: ovarian adenocarcinoma cell line SKOV-3; experiment: XTT proliferation assay, SKOV-3; type: cell-based, human; settings: for EC50: Homo sapiens, SK-OV-3, read-out: XTT proliferation assay, EC50, SKOV3
Excerpt: as §1, §2

[4] = system: human glioblastoma cell line SF-268; experiment: XTT proliferation assay, SF-268; type: cell-based; settings: for EC50: Homo sapiens, read-out: XTT proliferation assay, EC50, SF-268
Excerpt: as §1, §2

[5] = system: lung carcinoma cell line NCI-H460; experiment: XTT proliferation assay, NCI-H460; type: cell-based, human; settings: for EC50: Homo sapiens, read-out: XTT proliferation assay, EC50, NCI-H460
Excerpt: as §1, §2

[6] = NCI-H460 cells, 45 h incubation

Molecule | EC50 ([2]; KB/HeLa cells, 45 h incubation) [µg/mL] | EC50 ([3]; SKOV-3 cells, 45 h incubation) [µg/mL] | EC50 ([4]; SF-268 cells, 45 h incubation) [µg/mL] | EC50 [5, 6] [µg/mL] | further results
O=C(c1c2ccccc2nc2ccccc12)N1CCN(c2cccc(O)c2)CC1 [Acridin-9-yl-[4-(3-hydroxyphenyl)piperazin-1-yl]methanone, reference compound] | – | – | – | – | solubility [1]: 0.03 µg/mL (≈ 0.0782 µM)
COc1cccc(N2CCN(C(=O)c3c4ccccc4nc4ccccc34)CC2)c1 [Acridin-9-yl-[4-(3-methoxyphenyl)piperazin-1-yl]-methanone, reference compound] | – | – | – | – | solubility [1]: 0.42 µg/mL (≈ 1.06 µM)
CC(C)NC(=O)Oc1cccc(N2CCN(C(=O)c3c4ccccc4nc4ccccc34)CC2)c1 [Compound 2, 3-[4-(Acridin-9-ylcarbonyl)piperazin-1-yl]phenyl isopropylcarbamate] | 0.051 (≈ 0.109 µM) | 0.039 (≈ 0.0832 µM) | 0.061 (≈ 0.13 µM) | 0.062 (≈ 0.132 µM) | –
O=C(c1c2ccccc2nc2ccccc12)N1CCN(c2cccc(OP(=O)(O)O)c2)CC1 [Compound 4, Mono-{3-[4-(acridin-9-ylcarbonyl)piperazin-1-yl]phenyl}phosphate] | – | – | – | – | XTT proliferation assay, EC50, KB/Hela [2]: 0.018 µg/mL; XTT proliferation assay, EC50, SKOV3 [3]: 0.208 µg/mL; XTT proliferation assay, EC50, SF-268 [4]: 0.140 µg/mL; XTT proliferation assay, EC50, NCI-H460 [5]: 0.272 µg/mL
O=C(c1c2ccccc2nc2ccccc12)N1CCN(c2cccc(OP(=O)(O)Oc3cccc(N4CCN(C(=O)c5c6ccccc6nc6ccccc56)CC4)c3)c2)CC1 [Compound 11, bis-{3-[4-(Acridin-9-ylcarbonyl)piperazin-1-yl]phenyl}phosphate] | – | – | – | – | XTT proliferation assay, EC50, KB/Hela ([2]; KB/HeLa cells, 45 h incubation): 0.132 µg/mL; XTT proliferation assay, EC50, SKOV3 ([3]; SKOV-3 cells, 45 h incubation): 0.133 µg/mL; XTT proliferation assay, EC50, SF-268 ([4]; SF-268 cells, 45 h incubation): 0.127 µg/mL; XTT proliferation assay, EC50, NCI-H460 [5, 6]: 0.293 µg/mL
CC1(C)OCC(C2OC3OC(C)(C)OC3C2OC(=O)CCC(=O)Oc2cccc(N3CCN(C(=O)c4c5ccccc5nc5ccccc45)CC3)c2)O1 (centres unmarked) [Compound 23, 3-[4-(Acridin-9-ylcarbonyl)piperazin-1-y;]phenyl 5-(2,2-dimethyl-[1,3]dioxolan-4-yl)-2,2-dimethyltetrahydrofuro[2,3-d][1,3]dioxol-6-yl succinate] | – | – | – | – | XTT proliferation assay, EC50, KB/Hela ([2]; KB/HeLa cells, 45 h incubation): 0.045 µg/mL; XTT proliferation assay, EC50, SKOV3 ([3]; SKOV-3 cells, 45 h incubation): 0.023 µg/mL; XTT proliferation assay, EC50, SF-268 ([4]; SF-268 cells, 45 h incubation): 0.058 µg/mL; XTT proliferation assay, EC50, NCI-H460 [5, 6]: 0.055 µg/mL
CC1(C)OCC(C2OC3OC(C)(C)OC3C2OCCCCC(=O)Oc2cccc(N3CCN(C(=O)c4c5ccccc5nc5ccccc45)CC3)c2)O1 (centres unmarked) [Compound 24, 3-[4-(Acridin-9-ylcarbonyl)piperazin-1-yl]phenyl 5-[5-(2,2-dimethyl-[1,3]-dioxolan-4-yl)-2,2-dimethyltetrahydrofuro[2,3-d][1,3]dioxol-6-yloxy]-pentanoate] | 0.04 (≈ 0.0551 µM) | 0.023 (≈ 0.0317 µM) | 0.048 (≈ 0.0661 µM) | 0.072 (≈ 0.0992 µM) | –
O=C(NCCCl)Oc1cccc(N2CCN(C(=O)c3c4ccccc4nc4ccccc34)CC2)c1 [Compound 30, 3-[4-(Acridin-9-ylcarbonyl)piperazin-1-yl]phenyl (2-chloroethyl)carbamate] | 0.029 (≈ 0.0593 µM) | 0.019 (≈ 0.0389 µM) | 0.026 (≈ 0.0532 µM) | 0.025 (≈ 0.0511 µM) | –
Mono-{3-[4-(acridin-9-ylcarbonyl)piperazin-1-yl]phenyl}glutarate [Compound 22] | – | – | – | – | XTT proliferation assay, EC50, KB/Hela ([2]; KB/HeLa cells, 45 h incubation): 0.01 µg/mL; XTT proliferation assay, EC50, SKOV3 ([3]; SKOV-3 cells, 45 h incubation): 0.007 µg/mL; XTT proliferation assay, EC50, SF-268 ([4]; SF-268 cells, 45 h incubation): 0.019 µg/mL; XTT proliferation assay, EC50, NCI-H460 [5, 6]: 0.016 µg/mL

Second part, led by results:

EC50 ([2]; KB/HeLa cells, 45 h incubation) [µg/mL] | EC50 ([3]; SKOV-3 cells, 45 h incubation) [µg/mL] | EC50 ([4]; SF-268 cells, 45 h incubation) [µg/mL] | EC50 [5, 6] [µg/mL] | Molecule | further results
0.02 (≈ 0.0252 µM) | 0.013 (≈ 0.0164 µM) | 0.025 (≈ 0.0315 µM) | 0.026 (≈ 0.0328 µM) | O=C(Oc1cccc(N2CCN(C(=O)c3c4ccccc4nc4ccccc34)CC2)c1)Oc1cccc(N2CCN(C(=O)c3c4ccccc4nc4ccccc34)CC2)c1 [Compound 19, bis-{3-[4-(Acridin-9-ylcarbonyl)piperazin-1-yl]phenyl}carbonate] | –
0.042 (≈ 0.065 µM) | 0.026 (≈ 0.0403 µM) | 0.047 (≈ 0.0728 µM) | 0.054 (≈ 0.0836 µM) | O=C(CCCCOC1C(O)C(O)OC(CO)C1O)Oc1cccc(N2CCN(C(=O)c3c4ccccc4nc4ccccc34)CC2)c1 (centres unmarked) [Compound 26, 3-[4-(Acridin-9-ylcarbonyl)piperazin-1-yl]phenyl 5-(2,3,5-trihydroxy-6-hydroxymethyltetrahydropyran-4-yloxy)pentanoate] | –
